Data reported in patent publication US11912701B2, “Protein kinase inhibitors for promoting liver regeneration or reducing or preventing hepatocyte death” (HEPAREGENIX GMBH, priority 2018, dated 2024).

Experiments:
Assay type in all cases: biochemical
BRaf = molecular target: T1, BRaf (Homo sapiens, UniProt P15056); assay: 33PanQinase enzyme assay, BRaf; settings: ratio IC50(BRaf)/IC50(MKK4)
T1 construct: purchased ProQinase GmbH, Freiburg, Germany (33PanQinase Assay Service)
T1 sequence (P15056 whole entry, species assumed): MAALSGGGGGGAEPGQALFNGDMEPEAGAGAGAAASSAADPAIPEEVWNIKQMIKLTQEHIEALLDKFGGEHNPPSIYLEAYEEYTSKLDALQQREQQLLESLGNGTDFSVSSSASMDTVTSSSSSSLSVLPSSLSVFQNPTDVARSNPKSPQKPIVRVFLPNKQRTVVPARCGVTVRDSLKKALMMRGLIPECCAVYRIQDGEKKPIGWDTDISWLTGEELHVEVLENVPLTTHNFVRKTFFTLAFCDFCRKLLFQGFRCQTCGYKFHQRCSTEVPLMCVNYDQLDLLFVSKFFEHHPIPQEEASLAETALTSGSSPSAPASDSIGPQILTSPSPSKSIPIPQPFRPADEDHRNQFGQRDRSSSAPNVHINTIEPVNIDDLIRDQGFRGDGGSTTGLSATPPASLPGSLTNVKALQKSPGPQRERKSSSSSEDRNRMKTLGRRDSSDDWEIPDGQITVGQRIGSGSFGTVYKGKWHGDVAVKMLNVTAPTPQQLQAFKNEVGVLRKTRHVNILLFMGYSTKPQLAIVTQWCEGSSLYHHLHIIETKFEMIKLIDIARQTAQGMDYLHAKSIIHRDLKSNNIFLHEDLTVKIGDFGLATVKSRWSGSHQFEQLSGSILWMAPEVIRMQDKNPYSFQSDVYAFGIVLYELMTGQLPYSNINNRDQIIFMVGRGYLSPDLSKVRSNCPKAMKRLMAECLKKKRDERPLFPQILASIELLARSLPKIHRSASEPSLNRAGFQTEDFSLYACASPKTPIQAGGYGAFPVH
Method: (§1) The kinase activities of the compounds of the invention were measured using the 33PanQinase® Assay Service provided by ProQinase GmbH, Freiburg, Germany. Details of the assay conditions are disclosed on the website of ProQinase (https://www.proginase.com/products-services-biochemical-assay-services/kinase-assays). In brief, all kinase assays were performed in 96-well FlashPlates™ from PerkinElmer (Boston, MA, USA) in a 50 μl reaction volume. The reaction cocktail was pipetted in four steps in the following order: • 20 μl of assay buffer (standard buffer) • 5 μl of ATP solution (in H2O) • 5 μl of test compound (in 10% DMSO) • 20 μl enzyme/subtrate mix
(§2) The reaction cocktails were incubated at 30° C. for 60 minutes. The reaction is stopped with 50 μl of 2% (v/v) H3PO4, plates were aspirated and washed two times with 200 μl 0.9% (w/v) NaCl. Incorporation of ^33Pi was determined with a microplate scintillation counter (Microbeta, Wallac).
(§3) All assays were performed with a BeckmanCoulter/SAGIAN™ Core System.
(§4) In case of single concentration assays, the potency of the test compound is expressed as % residual activity. […] The fitting method used was a least-squares fit.
(§5) Selectivity of test compounds against BRaf, JNK1 and MKK7, altogether denominated as off-targets was calculated by the ratio of IC50 (off-target)/IC50 (MKK4) and categorized as follows: […]

JNK1 = JNK1 (Homo sapiens, UniProt P45983); assay: 33PanQinase enzyme assay, JNK1; set-up: purchased ProQinase GmbH, Freiburg, Germany (33PanQinase Assay Service); settings: ratio IC50(JNK1)/IC50(MKK4)
Sequence of JNK1 (P45983 whole entry): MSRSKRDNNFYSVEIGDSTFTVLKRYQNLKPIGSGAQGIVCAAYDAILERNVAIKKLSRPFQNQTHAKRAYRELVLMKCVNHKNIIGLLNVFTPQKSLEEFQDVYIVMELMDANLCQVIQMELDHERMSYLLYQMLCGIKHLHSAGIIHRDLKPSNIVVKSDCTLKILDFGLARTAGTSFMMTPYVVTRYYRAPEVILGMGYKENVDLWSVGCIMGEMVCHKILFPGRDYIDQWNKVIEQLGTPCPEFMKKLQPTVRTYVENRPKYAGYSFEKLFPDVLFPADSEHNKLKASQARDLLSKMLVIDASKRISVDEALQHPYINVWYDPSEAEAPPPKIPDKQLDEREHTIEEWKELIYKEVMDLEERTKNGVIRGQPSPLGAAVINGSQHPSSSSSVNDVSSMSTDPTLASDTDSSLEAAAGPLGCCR
Method: as §1, §2, §3, §4, §5

MKK7 = molecular target: T2, MKK7 (Homo sapiens, UniProt O14733); assay: 33PanQinase enzyme assay, MKK7; set-up: purchased ProQinase GmbH, Freiburg, Germany (33PanQinase Assay Service); settings: ratio IC50(MKK7)/IC50(MKK4)
T2 sequence (O14733 1-419): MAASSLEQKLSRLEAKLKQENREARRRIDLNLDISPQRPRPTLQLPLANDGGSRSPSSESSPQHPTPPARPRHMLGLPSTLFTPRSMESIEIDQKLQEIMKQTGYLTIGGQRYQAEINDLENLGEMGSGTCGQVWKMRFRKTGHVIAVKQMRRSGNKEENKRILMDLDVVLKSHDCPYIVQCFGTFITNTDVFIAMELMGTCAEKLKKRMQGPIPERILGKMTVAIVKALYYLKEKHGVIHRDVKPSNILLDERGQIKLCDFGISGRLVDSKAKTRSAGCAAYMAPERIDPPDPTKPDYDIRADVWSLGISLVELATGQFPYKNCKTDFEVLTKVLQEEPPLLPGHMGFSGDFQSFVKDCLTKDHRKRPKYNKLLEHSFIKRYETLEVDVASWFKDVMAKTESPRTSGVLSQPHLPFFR
Method: as §1, §2, §3, §4, §5

MKK4 = molecular target: T3, MKK4 (Homo sapiens, UniProt P45985); assay: 33PanQinase enzyme assay, MKK4; settings: assay 'IC50'; read-out: Potency MKK4 (IC50)
T3 construct: purchased ProQinase GmbH, Freiburg, Germany (33PanQinase Assay Service)
T3 sequence (P45985 1-399): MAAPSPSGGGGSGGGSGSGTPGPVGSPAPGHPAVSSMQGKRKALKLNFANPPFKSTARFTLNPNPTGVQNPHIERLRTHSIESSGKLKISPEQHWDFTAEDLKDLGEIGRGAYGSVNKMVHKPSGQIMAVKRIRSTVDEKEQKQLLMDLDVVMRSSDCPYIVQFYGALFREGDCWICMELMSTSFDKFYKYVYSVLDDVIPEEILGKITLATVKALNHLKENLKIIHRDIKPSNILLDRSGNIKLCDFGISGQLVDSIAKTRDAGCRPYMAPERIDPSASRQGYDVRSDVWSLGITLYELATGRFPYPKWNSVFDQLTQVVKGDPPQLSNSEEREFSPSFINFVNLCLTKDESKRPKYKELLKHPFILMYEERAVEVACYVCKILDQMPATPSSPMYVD
Method: as §1, §2, §3, §4
Inhibition potency against MKK4 is categorized as follows:
Assay at single concentration (100 nM):

Selectivity Braf, IC50(off-target)/IC50(MKK4) (BRaf) | Selectivity JNK1, IC50(off-target)/IC50(MKK4) (JNK1) | Selectivity IVIKK7, IC50(off-target)/IC50(MKK4) (MKK7) | IC50 (MKK4) [nM] | Structure (SMILES)
◯ (3 ≥ IC50(off-target)/IC50(MKK4)) | + (10 ≥ IC50(off-target)/IC50(MKK4) > 3) | +++ (IC50(off-target)/IC50(MKK4) > 100) | 100 to 1000 | CCCS(=O)(=O)Nc1ccc(F)c(C(=O)c2c[nH]c3ncc(-c4ccccc4C(F)(F)F)cc23)c1F [Example 97, N-(2,4-difluoro-3-(5-(2-(trifluoromethyl)phenyl)-1H-pyrrolo[2,3-b]pyridine-3-carbonyl)phenyl)propane-1-sulfonamide]
+++ (IC50(off-target)/IC50(MKK4) > 100) | +++ (IC50(off-target)/IC50(MKK4) > 100) | +++ (IC50(off-target)/IC50(MKK4) > 100) | < 100 | CCCS(=O)(=O)Nc1c(F)ccc(C(=O)c2c[nH]c3ncc(-c4cnc(C5CC5)cc4C)cc23)c1F [Example 167, N-(3-(5-(6-cyclopropyl-4-methylpyridin-3-yl)-1H-pyrrolo[2,3-b]pyridine-3-carbonyl)-2,6-difluorophenyl)propane-1-sulfonamide]
◯ (3 ≥ IC50(off-target)/IC50(MKK4)) | + (10 ≥ IC50(off-target)/IC50(MKK4) > 3) | +++ (IC50(off-target)/IC50(MKK4) > 100) | 100 to 1000 | CCCS(=O)(=O)Nc1ccc(F)c(C(=O)c2c[nH]c3ncc(-c4cccc(F)c4)cc23)c1F [Example 115, N-(2,4-difluoro-3-(5-(3-fluorophenyl)-1H-pyrrolo[2,3-b]pyridine-3-carbonyl)phenyl)propane-1-sulfonamide]
+++ (IC50(off-target)/IC50(MKK4) > 100) | +++ (IC50(off-target)/IC50(MKK4) > 100) | +++ (IC50(off-target)/IC50(MKK4) > 100) | < 100 | CCCS(=O)(=O)Nc1c(F)ccc(C(=O)c2c[nH]c3ncc(-c4cnc(C(C)(C)C)nc4)cc23)c1F [Example 196, N-(3-(5-(2-(tert-butyl)pyrimidin-5-yl)-1H-pyrrolo[2,3-b]pyridine-3-carbonyl)-2,6-difluorophenyl)propane-1-sulfonamide]

Structure (SMILES) | Selectivity Braf, IC50(off-target)/IC50(MKK4) (BRaf) | Selectivity JNK1, IC50(off-target)/IC50(MKK4) (JNK1) | Selectivity IVIKK7, IC50(off-target)/IC50(MKK4) (MKK7) | IC50 (MKK4) [nM]
CCCS(=O)(=O)Nc1c(F)ccc(C(=O)c2c[nH]c3ncc(-c4ccc(S(C)(=N)=O)cc4)cc23)c1F (stereo not shown) [Example 151, N-(2,6-difluoro-3-(5-(4-(S-methylsulfonimidoyl)phenyl)-1H-pyrrolo[2,3-b]pyridine-3-carbonyl)phenyl)propane-1-sulfonamide] | ++ (100 ≥ IC50(off-target)/IC50(MKK4) > 10) | ++ (100 ≥ IC50(off-target)/IC50(MKK4) > 10) | +++ (IC50(off-target)/IC50(MKK4) > 100) | 100 to 1000
CS(=O)(=O)Nc1c(F)ccc(C(=O)c2c[nH]c3ncc(-c4cccc5ccccc45)cc23)c1F [Example 214, N-(2,6-difluoro-3-(5-(naphthalen-1-yl)-1H-pyrrolo[2,3-b]pyridine-3-carbonyl)phenyl)methanesulfonamide] | +++ (IC50(off-target)/IC50(MKK4) > 100) | ++ (100 ≥ IC50(off-target)/IC50(MKK4) > 10) | +++ (IC50(off-target)/IC50(MKK4) > 100) | 100 to 1000
CCCS(=O)(=O)Nc1ccc(F)c(C(=O)c2c[nH]c3ncc(-c4ccc(N(C)C)cc4)cc23)c1F [Example 98, N-(3-(5-(4-(dimethylamino)phenyl)-1H-pyrrolo[2,3-b]pyridine-3-carbonyl)-2,4-difluorophenyl)propane-1-sulfonamide] | ◯ (3 ≥ IC50(off-target)/IC50(MKK4)) | + (10 ≥ IC50(off-target)/IC50(MKK4) > 3) | ++ (100 ≥ IC50(off-target)/IC50(MKK4) > 10) | 1000 to 10000
